Experimental data reported in patent US12365643B2, “Phenoxy carboxylic acid compounds and medical uses thereof” (QINGDAO RISING BIOTECHNOLOGY CO., LTD, priority 2018, dated 2025).

Assays:
[1] = test system: RAW264.7 mouse macrophages; test: Determination of NO generation induced by LPS; assay type: cell-based; settings: 10 μM, 1 μg/mL LPS, 24 hours, RAW264.7 (FIG. 2)
Protocol: The results are expressed as the multiple of the NO content in the cell culture supernatant of the administration group (10 μM) as compared with that in the cell culture supernatant of the control group (DMSO group), in which compared with the control group, *P<0.05, **P<0.01, ***P<0.001.
NO is a reactive nitrogen species (RNS) and an important gas signal molecule. Macrophages could convert arginine into NO which participated in the body's inflammatory response. Therefore, determination of inhibitory activity of a drug on NO generation was one of the classic methods to evaluate drug's anti-inflammatory ability. RAW264.7 cells at exponential growth phase were inoculated into a 96-well plate at 1×10^4 cells/200 μL. well of medium. After adherence, the medium was discarded, and the cells were subjected to drug treatments. Normal group (serum-free medium), LPS model group (serum-free medium containing 1 μg/mL LPS), LPS+drug group (serum-free medium containing 1 μg/mL LPS, 10 μM gemfibrozil or the compound of the present application) were established, and 3 repeated wells were set for each group. After 24 hours incubation in incubator, cell supernatant of each well was collected and assay was performed according to the instructions of NO determination kit (Nanjing Jiancheng). The absorbance value of each well at wavelength of 540 nm was read and NO content was calculated.

[2] = test system: NF-κB; test: NF-κB luciferase reporter gene transcriptional activity in SW480 cells; assay type: cell-based, human; settings: 50 μM, 6 hours, SW480 stably transfected (FIG. 3)
Protocol: (§1) NF-κB was the most important inflammatory signal pathway. SW480 human colon cancer cells stably transfected with a luciferase reporter gene driven by NF-κB were used to determine the effects of the compound of the present application and the control drug gemfibrozil on NF-κB transcriptional activity, which comprised the following steps. • (1) Cells stably transfected with NF-κB Luc were cultivated to exponential growth, inoculated at a culture medium concentration of 1×10^5/[…] in a 24-well plate, and cultured for 24 hours, the medium was discarded, and the test compound or gemfibrozil formulated with serum-free medium at 50 μM were added to the 24-well plate and incubation was continued for 6 hours. After washing once with 200 μL of PBS, 100 μL of reporter gene cell lysis buffer was added, the cells were lysed on ice for 10 minutes, and the cell lysate was collected by pipetting. • (2) After centrifugation was performed at 8000 rpm and 4° C. for 10 min, the supernatant was pipetted for fluorescence assay. • (3) The measurement gap time of chemiluminescence analyzer was set to 2 s and the measurement time was set to 10 s. Automatic sample injection was adopted, 50 μL of luciferase assay reagent was added to each well. The reporter gene cell lysis buffer was used as a blank control. • (4) After centrifugation, the supernatant was taken, and the BCA method was used to determine the protein concentration so as to normalize the reporter gene results.

[3] = test system: phosphorylated IRS-1; test: Phosphorylated IRS-1 level by Western blotting in HepG2; assay type: cell-based, human; settings: 1 μM, 24 hours, HepG2, Western blotting (FIG. 6C)
Excerpt: (§2) Carnitine palmitoyltransferase (CPT1α) is a rate-limiting enzyme of fatty acid oxidation. When the body or tissues are lacking in energy, CPT1α catalyzes the entry of fatty acids into mitochondria for […], and at the same time, CPT1α is also involved in the regulation of fatty acid-induced insulin resistance and inflammation. Protein kinase B/glycogen synthase kinase 3β (AKT/GSK3β) signaling pathway and insulin receptor substrate 1 (IRS-1) are key signaling pathways that regulate glucose metabolism in response to insulin signal. Therefore, by determining the effects of compounds on the CPT1α protein level and the AKT, GSK3β and IRS-1 protein phosphorylation levels, it is possible to evaluate the regulatory effects of the compounds on glycolipid metabolism.
(§3) After human liver cancer cells HepG2 were incubated with the compound of the present application or the control drug at 1 μM for 24 hours, the CPT1α protein level and the AKT, GSK3β and IRS-1 phosphorylated protein levels in the cells were determined by Western blotting; after gray-scale scanning by using Image J15.0.1, normalization was performed by using β-tubulin protein level as internal control, and the quantitative analysis results were shown in FIG. 6.

[4] = test system: PPARγ; test: PPARγ mRNA expression by real-time quantitative PCR in HepG2; assay type: cell-based, human; settings: 1 μM, 6 hours, HepG2 (FIG. 5B)
Excerpt: (§4) Peroxisome proliferation factor activated receptor (PPAR) is an important nuclear receptor that regulates glycolipid metabolism, including three subtypes: α, β/δ and γ. Peroxisome proliferator-activated receptor γ coactivator 1α (PGC-1α) is its auxiliary transcriptional activator. Acyl-CoA oxidase 1 (ACOX1) is the first rate-limiting enzyme for fatty acid β oxidation. Fatty acid binding protein 1 (FABP1) is highly expressed in liver, and can bind fatty acid, heme and other molecules to reduce their toxicity and damage. Up-regulating the expression level of these genes helps to improve the body's metabolism, and their agonists are an important class of anti-metabolic drugs. After the compound of the present application (1 μM) and the control drug gemfibrozil (1 μM) were incubated with human liver cancer cells HepG2 for 6 hours, real-time fluorescent quantitative PCR method was used to determine the relative expression of mRNA of related genes in the cells.
(§5) The company which synthesized the primers was Suzhou Hongxun Biotechnology Co., Ltd. Tranzol reagent (Tranzol total RNA extraction reagent, TransGen Biotech) was used to extract total RNA from tissues. 5× All-In-One RT MasterMix reverse transcription kit (Abcam, USA) and real-time quantitative PCR Master Mix (Aidlab Biotechnologies Co., Ltd) were used. Bio-Rad CFX Connect™ Real-Time PCR Detection System for qPCR was used, and 2^−ΔΔCT method was used for data analysis. The expression level of mRNA in the normal control group was set to 1, and the relative expression level of mRNA in the administration group was calculated, so as to confirm whether the active compound affected the PPAR pathway, thereby further regulating lipid metabolism.

[5] = test system: antioxidant response element (ARE); test: ARE luciferase reporter gene activity in HepG2 cells; assay type: cell-based, human; settings: 50 μM, HepG2 stably transfected (FIG. 4)
Protocol: as §1
In this experimental example, the luciferase activity in HepG2 human liver cancer cells stably transfected with a luciferase reporter gene driven by antioxidant response element (ARE) was determined to evaluate the regulatory effects of the compound of the present application and gemfibrozil on the transcriptional activity of transcription factor Nrf2 and the cellular oxidative stress response signals, in which the operation process of the reporter gene assay was the same as that of Experimental Example 2.2.

[6] = test system: PGC1α; test: PGC1α mRNA expression by real-time quantitative PCR in HepG2; assay type: cell-based, human; settings: 1 μM, 6 hours, HepG2 (FIG. 5C)
Excerpt: as §4, §5

[7] = test system: CPT1α; test: CPT1α protein level by Western blotting in HepG2; assay type: cell-based, human; settings: 1 μM, 24 hours, HepG2, Western blotting (FIG. 6A)
Excerpt: as §2, §3

[8] = test system: db/db mice; test: Diabetes mellitus model (db/db mice); assay type: in vivo, mouse; settings: intragastric once a day for 28 days, 50 mg/kg (pioglitazone 6 mg/kg)
Excerpt: Animal model: C57BL/KsJ-leprdb/leprdb diabetic (db/db) mice were widely used as animal models of type 2 diabetes mellitus, in which spontaneous mutations of leptin receptor (Leptin receptor, Lepr) caused extreme obesity, polyphagia, diabetes and polyuria. In this experiment, db/db mice (purchased from the Department of Animals, Health Science Center of Peking University) were selected. In the experiment, 28 db/db mice were used, and the animals with blood glucose of about 7-13 mmol/L were selected. […] Intragastric administration was adopted with an administration volume of 10 ml/kg. […] The administration was performed once a day for 28 consecutive days. From the day of oral administration, the physiological changes of the animals were observed every day. Blood glucose was measured every 3 days (Roche blood glucose meter) and blood glucose difference (Δ) was calculated by the following formula: blood glucose difference (Δ)=the blood glucose of the day—the initial blood glucose (the initial blood glucose difference was zero). For mice in each experimental group, blood was collected, serum was separated, and liver was taken for wet-weight measurement after necropsy; liver tissue was taken and fixed for pathological examination, H.E. staining and oil red O staining (Wuhan Zishan Biotechnology Co., Ltd.) were performed, and mouse liver lesions were observed under light microscope; routine examination of blood was performed by Animal Laboratory Department, Health Science Center of Peking University to measure the following indexes: white blood cell count (WBC), red blood cell count (RBC), lymphocyte count (LY), platelet (PLT) and so on; biochemical laboratory examination of blood was performed by Laboratory Medicine, Third Hospital, Peking University to measure the following indexes: triglycerides (TG), total cholesterol (T-CHO), high-density lipoprotein cholesterol (HDL-C), low-density lipoprotein cholesterol (LDL-C) and so on.

Row | SMILES | NO generation induced by LPS [1] | activity of NF-κB reporter gene [2] | phosphorylation level of IRS-1 [3] | ARE reporter gene activity [5] | further results
1 | Cc1cc(OCCC(C)(C)C(=O)O)c(C)cc1Br [BJMU-111, 4-(4-bromo-2,5-dimethylphenoxy)-2,2-dimethylbutanoic acid] | could inhibit NO generation |  |  |  | 
2 | Cc1ccc(C)c(OCCCC(C)(C)C(=O)O)c1Cl [BJMU-209, 5-(2-chloro-3,6-dimethylphenoxy)-2,2-dimethylpentanoic acid] |  | could significantly inhibit the activity of NF-κB reporter gene | significantly increased the phosphorylation level of IRS-1 |  | 
3 | Cc1cc(OCCCC(C)(C)C#N)c(C)cc1Br [BJMU-309, 5-(4-bromo-2,5-dimethylphenoxy)-2,2-dimethylpentanenitrile] |  | could significantly inhibit the activity of NF-κB reporter gene | significantly increased the phosphorylation level of IRS-1 |  | PPARγ mRNA expression [4]: significantly induced PPARγ mRNA expression
4 | Cc1cc(OCCCC(C)(C)C(=O)O)c(C)c(C)c1Br [BJMU-315, 5-(4-bromo-2,3,5-trimethylphenoxy)-2,2-dimethylpentanoic acid] |  | could significantly inhibit the activity of NF-κB reporter gene |  |  | 
5 | CCC(C)(CCCOc1cc(C)c(Br)cc1C)C(=O)O (centres unmarked) [BJMU-401, 5-(4-bromo-2,5-dimethylphenoxy)-2-ethyl-2-methylpentanoic acid] | could inhibit NO generation |  |  | could significantly activate the ARE reporter gene activity | 
6 | Cc1cc(OCCCCC(C)(C)C(=O)O)c(C)cc1Br [BJMU-403, 6-(4-bromo-2,5-dimethylphenoxy)-2,2-dimethylhexanoic acid] | could inhibit NO generation |  |  | could significantly activate the ARE reporter gene activity | 
7 | COc1cc(Br)c(C)cc1OCCCC(C)(C)C(=O)O [BJMU-412, 5-(4-bromo-2-methoxy-5-methylphenoxy)-2,2-dimethylpentanoic acid] |  |  | significantly increased the phosphorylation level of IRS-1 | could significantly activate the ARE reporter gene activity | PGC1α mRNA expression [6]: significantly induced PGC1α mRNA expression
8 | Cc1cc(Br)c(C)c(I)c1OCCCC(C)(C)C(=O)O [BJMU-413, 5-(4-bromo-2-iodo-3,6-dimethylphenoxy)-2,2-dimethylpentanoic acid] | could inhibit NO generation |  |  |  | 
9 | Cc1cc(Br)c(C)c(O)c1OCCCC(C)(C)C(=O)O [BJMU-415, 5-(4-bromo-2-hydroxy-3,6-dimethylphenoxy)-2,2-dimethylpentanoic acid] | could inhibit NO generation | could significantly inhibit the activity of NF-κB reporter gene | significantly increased the phosphorylation level of IRS-1 | could significantly activate the ARE reporter gene activity | PPARγ mRNA expression [4]: significantly induced PPARγ mRNA expression; PGC1α mRNA expression [6]: significantly induced PGC1α mRNA expression; CPT1α protein level [7]: significantly increased CPT1α protein level
10 | Cc1cc(OCCCC(C)(C)C(=O)O)c(C)c(O)c1Br [BJMU-416, 5-(4-bromo-3-hydroxy-2,5-dimethylphenoxy)-2,2-dimethylpentanoic acid] |  |  | significantly increased the phosphorylation level of IRS-1 | could significantly activate the ARE reporter gene activity | 
11 | CCc1ccc(CCOc2ccc(CC3SC(=O)NC3=O)cc2)nc1 (centres unmarked) [Pioglitazone, pioglitazone] |  |  |  |  | AHDL (high density lipoprotein) [8]: 1.65 ± 0.29 mmol/L; ALDL (low density lipoprotein) [8]: 0.38 ± 0.03 mmol/L; ALT [8]: 225.43 ± 79.31 U/L; AST [8]: 212.79 ± 91.2 U/L; CHOL (total cholesterol) [8]: 3.45 ± 0.26 mmol/L; CK [8]: 1482.86 ± 707.74 U/L; CREA [8]: 12 ± 3.91 µmol/L; TGL (triglycerides) [8]: 2.17 ± 0.61 mmol/L
